≈ marks a conversion by molar mass, not a printed value.
How the values were obtained:
Format in all cases: cell-based
Entercoccus faecalis 276 = assay: MIC, standard broth micro-dilution assay
Experimental: (§1) The formula I compounds have in vitro and in vivo activity against Gram-positive pathogenic bacteria. The MIC's were determined using a standard broth micro-dilution assay.

[1] = system: Entercoccus gallinarum 245; assay: MIC, standard broth micro-dilution assay
Experimental: as §1

Leuconostoc lactis = assay: MIC, agar dilution on brain-heart infusion agar; conditions: Leuconostoc lactis (mean of 2)
Pedicoccus acidilacti = assay: MIC, agar dilution on brain-heart infusion agar; conditions: Pedioccccus acidilacti (mean of 10)
Pediococcus pentosaceus = assay: MIC, agar dilution on brain-heart infusion agar; conditions: Pediococcus pentosaceus (mean of 2)
[2] = system: Staphylococcus aureus SA1199B
Experimental: (§2) The MIC's were determined using a standard broth micro-dilution assay.

[3] = system: Staphylococcus aureus S13E
Experimental: as §2

[4] = system: Entercoccus faecalis 2041; assay: MIC, standard broth micro-dilution assay
Experimental: as §1

[5] = system: Staphylococcus aureus SA1199; assay: MIC, standard broth micro-dilution assay
Experimental: as §2

[6] = system: Leuconostoc mesenteroides; assay: MIC, agar dilution on brain-heart infusion agar; conditions: Leuconostoc mesenteroides (mean of 4)
[7] = system: Haemophilus influenzae RD; assay: MIC, standard broth micro-dilution assay
Experimental: as §2

[8] = system: Staphylococcus epidermidis 270; assay: MIC, standard broth micro-dilution assay
Experimental: as §2

Lactobacillus confusus = assay: MIC, agar dilution on brain-heart infusion agar
[9] = system: Staphylococcus aureus 491; assay: MIC, standard broth micro-dilution assay
Experimental: as §2

Q: With `CNC(CC(C)C)C(=O)NC1C(=O)NC(CC(N)=O)C(=O)NC2C(=O)NC3C(=O)NC(C(=O)NC(C(=O)O)c4cc(O)cc(O)c4-c4cc3ccc4O)C(OC3CC(C)(N)C(O)C(C)O3)c3ccc(c(Cl)c3)Oc3cc2cc(c3OC2OC(CO)C(O)C(O)C2OC2CC(C)(NCc3ccc4ccccc4c3)C(O)C(C)O2)Oc2ccc(cc2Cl)C1O` (stereo not shown) [Compound 1, 2-naphthylmethyl] as the compound, how does the MIC (Entercoccus faecalis 276) read?
A: Its MIC is at most 0.06 µg/mL.

Q: What about the MIC [1] of the same compound?
A: Its MIC is 4 µg/mL (≈ 2.31 µM).

Q: And the MIC (Leuconostoc lactis)?
A: Its MIC is 23 µg/mL (≈ 13.3 µM).

Q: And the MIC (Pedicoccus acidilacti)?
A: The MIC was 18 µg/mL (≈ 10.4 µM).

Q: And the MIC (Pediococcus pentosaceus)?
A: Its MIC is 23 µg/mL (≈ 13.3 µM).

Q: How did the MIC [2] turn out when “2-[4-chlorophenyl]-6-benzoxazolemethyl [Compound 116]” was run?
A: Its MIC is 0.5 µg/mL.

Q: And the MIC [3]?
A: Its MIC is 1 µg/mL.

Q: What about the MIC (Entercoccus faecalis 276) of the same compound?
A: The MIC was 0.25 µg/mL.

Q: And the MIC [1]?
A: Its MIC is 4 µg/mL.

Q: What about the MIC [4] of the same compound?
A: The MIC was at most 0.06 µg/mL.

Q: Which results are given for `CNC(CC(C)C)C(=O)NC1C(=O)NC(CC(N)=O)C(=O)NC2C(=O)NC3C(=O)NC(C(=O)NC(C(=O)O)c4cc(O)cc(O)c4-c4cc3ccc4O)C(OC3CC(C)(N)C(O)C(C)O3)c3ccc(c(Cl)c3)Oc3cc2cc(c3OC2OC(CO)C(O)C(O)C2OC2CC(C)(NCc3ccc(Oc4ccc([N+](=O)[O-])cc4)cc3)C(O)C(C)O2)Oc2ccc(cc2Cl)C1O` (stereo not shown) [Compound 57, 4-[4-nitrophenoxy]benzyl]?
A: MIC [5]: 1 µg/mL (≈ 0.55 µM); MIC (Entercoccus faecalis 276): 0.5 µg/mL (≈ 0.275 µM); MIC [1]: 2 µg/mL (≈ 1.1 µM); MIC [4]: ≤ 0.06 µg/mL

Q: Which MIC [1] does the source give for `CNC(CC(C)C)C(=O)NC1C(=O)NC(CC(N)=O)C(=O)NC2C(=O)NC3C(=O)NC(C(=O)NC(C(=O)O)c4cc(O)cc(O)c4-c4cc3ccc4O)C(OC3CC(C)(N)C(O)C(C)O3)c3ccc(c(Cl)c3)Oc3cc2cc(c3OC2OC(CO)C(O)C(O)C2OC2CC(C)(NCc3ccc(OCc4ccccc4)c(OC)c3)C(O)C(C)O2)Oc2ccc(cc2Cl)C1O` (stereo not shown) [Compound 52, 4-benzyloxy-3-methoxybenzyl] here?
A: The MIC was 1 µg/mL (≈ 0.55 µM).

Q: What about the MIC [4] of the same compound?
A: Its MIC is 0.5 µg/mL (≈ 0.275 µM).

Q: What about the MIC [6] of the same compound?
A: Its MIC is 76 µg/mL (≈ 41.8 µM).

Q: And the MIC (Pedicoccus acidilacti)?
A: The MIC was 55 µg/mL (≈ 30.2 µM).

Q: What does the source list for `CNC(CC(C)C)C(=O)NC1C(=O)NC(CC(N)=O)C(=O)NC2C(=O)NC3C(=O)NC(C(=O)NC(C(=O)O)c4cc(O)cc(O)c4-c4cc3ccc4O)C(OC3CC(C)(N)C(O)C(C)O3)c3ccc(c(Cl)c3)Oc3cc2cc(c3OC2OC(CO)C(O)C(O)C2OC2CC(C)(NCc3cc(OCc4ccccc4)ccc3OC)C(O)C(C)O2)Oc2ccc(cc2Cl)C1O` (stereo not shown) [Compound 51, 3-benzyloxy-6-methoxy benzyl]?
A: MIC (Entercoccus faecalis 276): ≤ 0.06 µg/mL; MIC [1]: 1 µg/mL (≈ 0.55 µM); MIC [4]: ≤ 0.06 µg/mL; MIC [6]: 76 µg/mL (≈ 41.8 µM); MIC (Pedicoccus acidilacti): 87 µg/mL (≈ 47.8 µM); MIC (Pediococcus pentosaceus): 91 µg/mL (≈ 50 µM)

Q: Which results are given for `CNC(CC(C)C)C(=O)NC1C(=O)NC(CC(N)=O)C(=O)NC2C(=O)NC3C(=O)NC(C(=O)NC(C(=O)O)c4cc(O)cc(O)c4-c4cc3ccc4O)C(OC3CC(C)(N)C(O)C(C)O3)c3ccc(c(Cl)c3)Oc3cc2cc(c3OC2OC(CO)C(O)C(O)C2OC2CC(C)(NCc3ccc4cc(C)ccc4c3)C(O)C(C)O2)Oc2ccc(cc2Cl)C1O` (stereo not shown) [Compound 189]?
A: MIC [7]: > 64 µg/mL; MIC [1]: 1 µg/mL (≈ 0.573 µM); MIC [4]: ≤ 0.06 µg/mL

Q: What does the source list for `CNC(CC(C)C)C(=O)NC1C(=O)NC(CC(N)=O)C(=O)NC2C(=O)NC3C(=O)NC(C(=O)NC(C(=O)O)c4cc(O)cc(O)c4-c4cc3ccc4O)C(OC3CC(C)(N)C(O)C(C)O3)c3ccc(c(Cl)c3)Oc3cc2cc(c3OC2OC(CO)C(O)C(O)C2OC2CC(C)(NCCc3ccccc3OCc3ccccc3)C(O)C(C)O2)Oc2ccc(cc2Cl)C1O` (stereo not shown) [Compound 59, 2-benzyloxyphenethyl]?
A: MIC [5]: ≤ 0.06 µg/mL; MIC [1]: 1 µg/mL (≈ 0.555 µM); MIC [4]: 0.5 µg/mL (≈ 0.277 µM)

Q: With “4-[2-chloro-6-fluorobenzyloxy]benzyl [Compound 80]” as the compound, how does the MIC [2] read?
A: The MIC was 1 µg/mL.

Q: And the MIC [3]?
A: The MIC was 1 µg/mL.

Q: What about the MIC (Entercoccus faecalis 276) of the same compound?
A: The MIC was at most 0.06 µg/mL.

Q: What about the MIC [1] of the same compound?
A: The MIC was at most 0.06 µg/mL.

Q: What about the MIC [4] of the same compound?
A: The MIC was at most 0.06 µg/mL.

Q: Which results are given for `CNC(CC(C)C)C(=O)NC1C(=O)NC(CC(N)=O)C(=O)NC2C(=O)NC3C(=O)NC(C(=O)NC(C(=O)O)c4cc(O)cc(O)c4-c4cc3ccc4O)C(OC3CC(C)(N)C(O)C(C)O3)c3ccc(c(Cl)c3)Oc3cc2cc(c3OC2OC(CO)C(O)C(O)C2OC2CC(C)(NCc3ccc(-c4ccccc4C)cc3)C(O)C(C)O2)Oc2ccc(cc2Cl)C1O` (stereo not shown) [Compound 209]?
A: MIC [8]: 0.125 µg/mL (≈ 0.0705 µM); MIC [1]: 1 µg/mL (≈ 0.564 µM); MIC [4]: ≤ 0.06 µg/mL

Q: Which results are given for `CNC(CC(C)C)C(=O)NC1C(=O)NC(CC(N)=O)C(=O)NC2C(=O)NC3C(=O)NC(C(=O)NC(C(=O)O)c4cc(O)cc(O)c4-c4cc3ccc4O)C(OC3CC(C)(N)C(O)C(C)O3)c3ccc(c(Cl)c3)Oc3cc2cc(c3OC2OC(CO)C(O)C(O)C2OC2CC(C)(NCc3cccc4c3OCO4)C(O)C(C)O2)Oc2ccc(cc2Cl)C1O` (stereo not shown) [Compound 58, 2,3-methylenedioxybenzyl]?
A: MIC [5]: 1 µg/mL (≈ 0.579 µM); MIC (Entercoccus faecalis 276): 0.5 µg/mL (≈ 0.29 µM); MIC [1]: 0.5 µg/mL (≈ 0.29 µM); MIC [4]: 0.5 µg/mL (≈ 0.29 µM); MIC (Pedicoccus acidilacti): 55 µg/mL (≈ 31.9 µM)

Q: What does the source list for `CNC(CC(C)C)C(=O)NC1C(=O)NC(CC(N)=O)C(=O)NC2C(=O)NC3C(=O)NC(C(=O)NC(C(=O)O)c4cc(O)cc(O)c4-c4cc3ccc4O)C(OC3CC(C)(N)C(O)C(C)O3)c3ccc(c(Cl)c3)Oc3cc2cc(c3OC2OC(CO)C(O)C(O)C2OC2CC(C)(NCc3cccc4c3oc3ccccc34)C(O)C(C)O2)Oc2ccc(cc2Cl)C1O` (stereo not shown) [Compound 39, 4-[1-oxa]fluorenylmethyl]?
A: MIC (Entercoccus faecalis 276): ≤ 0.06 µg/mL; MIC [1]: ≤ 0.06 µg/mL; MIC [4]: ≤ 0.06 µg/mL; MIC (Leuconostoc lactis): 32 µg/mL (≈ 18.1 µM); MIC [6]: 32 µg/mL (≈ 18.1 µM); MIC (Lactobacillus confusus): 32 µg/mL (≈ 18.1 µM); MIC (Pedicoccus acidilacti): 26 µg/mL (≈ 14.7 µM); MIC (Pediococcus pentosaceus): 32 µg/mL (≈ 18.1 µM)

Q: Which results are given for `CCOc1ccc2ccccc2c1CNC1(C)CC(OC2C(Oc3c4cc5cc3Oc3ccc(cc3Cl)C(OC3CC(C)(N)C(O)C(C)O3)C3NC(=O)C(NC(=O)C5NC(=O)C(CC(N)=O)NC(=O)C(NC(=O)C(CC(C)C)NC)C(O)c5ccc(c(Cl)c5)O4)c4ccc(O)c(c4)-c4c(O)cc(O)cc4C(C(=O)O)NC3=O)OC(CO)C(O)C2O)OC(C)C1O` (stereo not shown) [Compound 60, 2-ethoxy-1-naphthylmethyl]?
A: MIC [5]: 0.5 µg/mL (≈ 0.281 µM); MIC (Entercoccus faecalis 276): 0.5 µg/mL (≈ 0.281 µM); MIC [1]: 16 µg/mL (≈ 9.01 µM)

Q: How did the MIC [7] turn out when `CNC(CC(C)C)C(=O)NC1C(=O)NC(CC(N)=O)C(=O)NC2C(=O)NC3C(=O)NC(C(=O)NC(C(=O)O)c4cc(O)cc(O)c4-c4cc3ccc4O)C(OC3CC(C)(N)C(O)C(C)O3)c3ccc(c(Cl)c3)Oc3cc2cc(c3OC2OC(CO)C(O)C(O)C2OC2CC(C)(NCc3ccc(NC(=O)c4cccc(F)c4)cc3)C(O)C(C)O2)Oc2ccc(cc2Cl)C1O` (stereo not shown) [Compound 194, 4-[(3-fluorobenzoyl)amino]benzyl] was run?
A: The MIC was 32 µg/mL (≈ 17.6 µM).

Q: What about the MIC [1] of the same compound?
A: The MIC was 2 µg/mL (≈ 1.1 µM).

Q: What about the MIC [4] of the same compound?
A: The MIC was at most 0.06 µg/mL.

Q: What does the source list for `CNC(CC(C)C)C(=O)NC1C(=O)NC(CC(N)=O)C(=O)NC2C(=O)NC3C(=O)NC(C(=O)NC(C(=O)O)c4cc(O)cc(O)c4-c4cc3ccc4O)C(OC3CC(C)(N)C(O)C(C)O3)c3ccc(c(Cl)c3)Oc3cc2cc(c3OC2OC(CO)C(O)C(O)C2OC2CC(C)(NCCCCCCCCOc3ccc(Oc4ccccc4)cc3)C(O)C(C)O2)Oc2ccc(cc2Cl)C1O` (stereo not shown) [Compound 202]?
A: MIC [9]: 8 µg/mL (≈ 4.24 µM); MIC (Entercoccus faecalis 276): 4 µg/mL (≈ 2.12 µM); MIC [1]: 8 µg/mL (≈ 4.24 µM); MIC [4]: 1 µg/mL (≈ 0.529 µM)

Q: Which MIC [2] does the source give for “4-[2-[2-thiopropyl]ethoxy]benzyl [Compound 134]” here?
A: The MIC was 2 µg/mL.

Q: What about the MIC [3] of the same compound?
A: Its MIC is 2 µg/mL.

Q: And the MIC (Entercoccus faecalis 276)?
A: Its MIC is 1 µg/mL.

Q: What about the MIC [1] of the same compound?
A: Its MIC is 4 µg/mL.

Q: And the MIC [4]?
A: Its MIC is 0.25 µg/mL.

Q: For `CNC(CC(C)C)C(=O)NC1C(=O)NC(CC(N)=O)C(=O)NC2C(=O)NC3C(=O)NC(C(=O)NC(C(=O)O)c4cc(O)cc(O)c4-c4cc3ccc4O)C(OC3CC(C)(N)C(O)C(C)O3)c3ccc(c(Cl)c3)Oc3cc2cc(c3OC2OC(CO)C(O)C(O)C2OC2CC(C)(NCc3ccc4c(c3)OCCO4)C(O)C(C)O2)Oc2ccc(cc2Cl)C1O` (stereo not shown) [Compound 56], which MIC [5] is on record?
A: The MIC was 0.5 µg/mL (≈ 0.287 µM).

Q: What about the MIC (Entercoccus faecalis 276) of the same compound?
A: The MIC was 0.25 µg/mL (≈ 0.144 µM).

Q: What about the MIC [1] of the same compound?
A: Its MIC is 16 µg/mL (≈ 9.19 µM).

Q: What about the MIC [4] of the same compound?
A: The MIC was 0.25 µg/mL (≈ 0.144 µM).

Q: Which MIC [9] does the source give for `C=CCCCCCCCCCNC1(C)CC(OC2C(Oc3c4cc5cc3Oc3ccc(cc3Cl)C(OC3CC(C)(N)C(O)C(C)O3)C3NC(=O)C(NC(=O)C5NC(=O)C(CC(N)=O)NC(=O)C(NC(=O)C(CC(C)C)NC)C(O)c5ccc(c(Cl)c5)O4)c4ccc(O)c(c4)-c4c(O)cc(O)cc4C(C(=O)O)NC3=O)OC(CO)C(O)C2O)OC(C)C1O` (stereo not shown) [Compound 204, 10-undecenyl] here?
A: The MIC was at most 0.06 µg/mL.

Q: What about the MIC (Entercoccus faecalis 276) of the same compound?
A: Its MIC is at most 0.06 µg/mL.

Q: What about the MIC [4] of the same compound?
A: Its MIC is at most 0.06 µg/mL.

Reference: patent publication US5843889A, “Glycopeptide antibiotic derivatives” (Eli Lilly and Company, priority 1997, dated 1998)
